Laboratory results: patent EP2493892B1, “QUINUCLIDINE COMPOUNDS AS ALPHA-7 NICOTINIC ACETYLCHOLINE RECEPTOR LIGANDS” (Bristol-Myers Squibb Company, priority 2009, dated 2011)

Target: T1, α-7 nicotinic ACh receptor ion channels expressed in mammalian HEK 293 cells (Rattus norvegicus, UniProt Q05941)
T1 construct: expressed in transfected cells
Experiment: Ca2+-sensitive, fluorescence-based assay for α-7 nicotinic acetylcholine receptor channel function in mammalian cells (FLIPR)
Format: cell-based
Conditions: agonist activity, Ca2+ flux, read-out: FLIPR α7 activity rating (EC50)
Protocol: • I) α7 Nicotinic Acetycholine Receptor Binding. Membranes were prepared for binding using HEK293 cells stably expressing the rat α7 nicotinic acetycholine receptor (rat α7 nAChR). Cells were homogenized at 4°C in hypotonic lysis buffer consisting of 10 mM Tris (pH 7.4), 5 mM EDTA and protease inhibitors and centrifuged at 32000 xg for 20 minutes. The pellet was washed once in membrane wash buffer consisting of 50 mM Tris (pH 7.4), 1 mM EDTA and protease inhibitors and centrifuged at 32000 xg for 20 minutes. This pellet was then resuspended in assay buffer consisting 50 mM KH2PO4 (pH 7.4 at 25°C), 1 mM EDTA, 0.005 % Triton-X 100 and 0.1% (v/v) Sigma Protease Inhibitor Cocktail. Aliquots were then frozen in dry ice/ethanol and kept at -80°C until the day of the assay. • II) A Ca^2+ -Sensitive, Fluorescence-Based Assay α-7 for Nicotinic Acetylcholine Receptor Channel Function In Mammalian Cells ("FLIPR"). Summary: Lead compounds are evaluated for agonist activity at α-7, α3β4, α4αβ2, and α1β1δ1ε sub-types of nicotinic ACh receptor ion channels expressed in mammalian HEK 293 cells. Agonist potency and efficacy values are determined from kinetic fluorescence Ca^2+ influx measurements made using a 384 well FLIPR (Fluorescence Image Plate Reader). […] The basal fluorescence from the cells is monitored in real time, followed by the acute addition of test compounds. […]

T1 sequence (Q05941 23-502): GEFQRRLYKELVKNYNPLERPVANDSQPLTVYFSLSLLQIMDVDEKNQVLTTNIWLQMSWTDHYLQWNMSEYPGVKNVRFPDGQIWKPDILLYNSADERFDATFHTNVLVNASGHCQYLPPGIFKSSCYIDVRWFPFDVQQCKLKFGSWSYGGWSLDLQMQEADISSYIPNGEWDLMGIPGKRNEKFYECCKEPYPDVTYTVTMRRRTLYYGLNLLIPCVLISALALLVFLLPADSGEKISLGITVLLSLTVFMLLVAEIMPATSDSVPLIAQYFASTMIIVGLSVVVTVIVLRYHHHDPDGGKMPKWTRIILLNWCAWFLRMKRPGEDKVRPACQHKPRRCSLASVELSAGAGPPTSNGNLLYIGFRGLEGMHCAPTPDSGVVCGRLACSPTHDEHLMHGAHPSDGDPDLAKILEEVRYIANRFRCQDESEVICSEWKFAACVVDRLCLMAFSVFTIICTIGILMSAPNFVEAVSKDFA

With `c1cncc(-c2ccnc(NC3=NC[C@@]4(CN5CCC4CC5)O3)c2)c1` [Example 1, (R)-N-(3,4'-Bipyridin-2'-yl)-4H-1'-azaspiro[oxazole-5,3'-bicyclo[2.2.2]octan]-2-amine] the EC50 was < 100 nM.
